According to patent US20260232642A1, “RNA-BINDING MOLECULES WITH A SMALL CORE SCAFFOLD (R-SCORE) AND USES THEREOF” (Max-Planck-Gesellschaft zur Förderung der Wissenschaften …, priority 2022, published 2026):
Entries after “also recorded” stand apart in the source; their conditions may differ. Where two headings read alike, the source gives them in different places.

Tests used:
Molt-4 cells = experiment: MTT assay, Molt-4; assay type: cell-based, human; details: acute leukemia cell line, read-out: Cell lines IC50 [μM] Molt-4
Description: (§1) MAD-MB-231, MCF-7 and JAR cells were cultured in Dulbecco's modified Eagle's (DMEM) medium supplemented with 10% Fetal Bovine Serum (FBS), 100 u/mL penicillin-streptomycin. Jurkat, Molt-4 and Ramos cells were cultured in Roswell Park Memorial Institute (RPMI) 1640 medium with 10% Fetal Bovine Serum (FBS), 100 u/mL penicillin-streptomycin. All cell lines grown in an incubator with humidified 5% CO2 at 37° C.
(§2) Jurkat, Molt-4 and Ramos cells were collected and seeded into 96-well plates at a density of 8000-10000 per well and treated with compounds. MCF-7, MDA-MB-231 and JAR cells were collected and seeded into 96-well plates at a density of 2000-3000 per well and cultured overnight to adherent before treat with compounds. After exposed to increasing concentrations of compounds for 72 h, the cells in each well were mixed with 20 μL of 5 mg/ml MTT (3-(4,5-dimethylthiazol-2-yl)-2,5-diphenyltetrazolium bromide) for 2 h, then add 50 μL of 20% SDS/0.01 M HCl incubated overnight, and detected the absorbance at a wavelength of 570 nm.
(§3) Inhibition rate was calculated using the equation: […]
(§4) The IC50 values were calculated by using GraphPad Prism 9 software fitting to a dose-response inhibition equation.

MCF-7 cells = experiment: MTT assay, MCF-7; assay type: cell-based, human; details: breast cancer cell line, read-out: Cell lines IC50 [μM] MCF-7
Description: as §1, §2, §3, §4

MDA-MB-231 cells [1] = experiment: MTT assay, MDA-MB-231; assay type: cell-based, human; details: breast cancer cell line, read-out: Cell lines IC50 [μM] MDA-MB-231
Description: as §1, §2, §3, §4

[2] = test system: precursor microRNA-21 hairpin (pre-miR-21 hp); experiment: Differential scanning fluorimetry (DSF), pre-miR-21 hairpin; assay type: binding; details: 60 uM compound, 1 μM hairpin in PBS, Tm of compound minus Tm of DMSO control
Description: (§5) To measure the binding between compounds and precursor microRNA-21 hairpin (pre-miR-21 hp) or precursor microRNA-17 hairpin (pre-miR-17 hp), DSF was performed as previously described with modification (ACS Chem. Biol. 2017, 12, 2, 435-443). Precursor microRNA hairpin was dissolved in PBS and annealed by briefly heating to 95° C. for 3 min and slowly cooling to rt. Assay was performed in duplicates using white qPCR 8-strips (VWR) with a total volume of 10 μL in PBS. The total reaction consisted of 1 μM precursor microRNA hairpin, 1% test compound (DMSO dilution) and 2×SYBR GreenII (Thermo Fisher Scientific). Compounds were incubated with precursor microRNA hairpin at for 10 min at rt, then SYBR GreenII was added to each well, mixed and incubated 10 min at rt. The strips were spined and loaded to the RT-PCR detection system (BIO-RAD CFX Connect), the fluorescence intensity was obtained every 1° C. for 30 s in the range of 20° C. to 80° C.
(§6) The melting temperature (Tm) was determined by the maximum of the negative of the first derivative of the fluorescence vs temperature melting curves. The ΔTm was calculated by the Tm value of compound subtract the Tm value of the DMSO control.

Ramos cells = experiment: MTT assay, Ramos; assay type: cell-based, human; details: 72 h, Burkitt lymphoma cell line, read-out: Cell lines IC50 [μM] Ramos
Description: as §1, §2, §3, §4

Jurkat cells = experiment: MTT assay, Jurkat; assay type: cell-based, human; details: 72 h, acute leukemia cell line, read-out: Cell lines IC50 [μM] Jurkat
Description: as §1, §2, §3, §4

[3] = test system: precursor microRNA-17 hairpin (pre-miR-17 hp); experiment: Differential scanning fluorimetry (DSF), pre-miR-17 hairpin; assay type: binding; details: 60 uM compound, 1 μM hairpin in PBS, Tm of compound minus Tm of DMSO control
Description: as §5, §6

MDA-MB-231 cells [4] = experiment: Colony formation assay; assay type: cell-based, human; details: for antiproliferation activity against MDA-MB-231 cell line: 6 days, crystal violet, vs DMSO; for antiproliferation activity compared to other selected compounds: MDA-MB-231, ranking among A10, A11, B2, B5, B8, B9; for inhibition of MDA-MB-231 cell proliferation at 10 μM: concentration of 10 μM
Description: as §1
MDA-MB-231 cells were collected and seeded into 24-well plates with the density of 1000 cells per well and cultured overnight. The medium was exchanged and supplemented with different compounds and concentrations every three days. 6 days later, cells were washed with PBS and fixed by 4% paraformaldehyde solution. After 15 min fix, the paraformaldehyde solution was washed with PBS and was then stained with 0.1% (w/v) crystal violet. After 15 min, the cells were washed and photographed.

JAR cells = experiment: MTT assay, JAR; assay type: cell-based, human; details: 72 h, choriocarcinoma cell line, read-out: Cell lines IC50 [μM] JAR
Description: as §1, §2, §3, §4

| Compound | IC50 (Molt-4 cells; Homo sapiens, MOLT-4, 72 h) | IC50 (MCF-7 cells; Homo sapiens, MCF7, 72 h) | IC50 (MDA-MB-231 cells [1]; Homo sapiens, MDA-MB-231, 72 h) | ΔTm (pre-miR-21 hp) @60 uM [° C.] [2] | IC50 (Ramos cells; Homo sapiens, Ramos) | IC50 (Jurkat cells; Homo sapiens, Jurkat) | ΔTm (pre-miR-17 hp) @60 uM [° C.] [3] | antiproliferation activity against MDA-MB-231 cell line (MDA-MB-231 cells [4]) | IC50 (JAR cells; Homo sapiens) | IC50 (Molt-4 cells; 72 h) | IC50 (Ramos cells) | IC50 (Jurkat cells) | antiproliferation activity compared to other selected compounds (MDA-MB-231 cells [4]) | inhibition of MDA-MB-231 cell proliferation at 10 μM (MDA-MB-231 cells [4]) | IC50 (MCF-7 cells; 72 h) | IC50 (MDA-MB-231 cells [1]; 72 h) | IC50 (JAR cells) |
| --- | --- | --- | --- | --- | --- | --- | --- | --- | --- | --- | --- | --- | --- | --- | --- | --- | --- |
| C=CCN1C(C#N)C(c2ccc(-c3ccc(C(F)(F)F)cc3)cc2)C1Cn1cc(-c2ccccn2)nn1 (centres unmarked) [Compound A10, 1-allyl-4-((4-(pyridin-2-yl)-1H-1,2,3-triazol-1-yl)methyl)-3-(4′-(trifluoromethyl)-[1,1′-biphenyl]-4-yl) azetidine-2-carbonitrile] | 1.6 µM | > 20 µM | > 20 µM | 0 °C | 8.87 µM | 7.51 µM | 0 °C | can inhibit MDA-MB-231 cells proliferation; also recorded: exhibited antiproliferation activity against MDA-MB-231 cell line in a dose-dependent manner | > 20 µM | – | – | – | – | – | – | – | – |
| CNc1nc(N2CC(c3ccc(-c4c(C)noc4C)cc3)C2C#N)nc2ccccc12 (centres unmarked) [Compound B2, 3-(4-(3,5-dimethylisoxazol-4-yl)phenyl)-1-(4-(methylamino)quinazolin-2-yl) azetidine-2-carbonitrile] | – | – | – | – | – | – | – | can inhibit MDA-MB-231 cells proliferation; also recorded: exhibited antiproliferation activity against MDA-MB-231 cell line in a dose-dependent manner | – | 4.67 µM | 3.03 µM | 4.49 µM | better antiproliferation ability; also recorded: most potent antiproliferation activity | fully inhibited | – | – | – |
| CNc1nc(N2CC(c3ccc(-c4ccc(C(F)(F)F)cc4)cc3)C2C#N)nc2ccccc12 (centres unmarked) [Compound B5, 1-(4-(methylamino)quinazolin-2-yl)-3-(4′-(trifluoromethyl)-[1,1′-biphenyl]-4-yl) azetidine-2-carbonitrile] | 8.42 µM | 5.61 µM | 6.95 µM | 0 °C | 2.8 µM | 5.9 µM | 0 °C | can inhibit MDA-MB-231 cells proliferation; also recorded: exhibited antiproliferation activity against MDA-MB-231 cell line in a dose-dependent manner | 1.44 µM | – | – | – | most potent antiproliferation activity | fully inhibited | – | – | – |
| CNc1nc(N2CC(c3ccc(-c4ccc5nc[nH]c5c4)cc3)C2C#N)nc2ccccc12 (centres unmarked) [Compound B9, 3-(4-(1H-benzo[d]imidazol-6-yl)phenyl)-1-(4-(methylamino)quinazolin-2-yl) azetidine-2-carbonitrile] | – | – | – | −1 °C | – | – | −1 °C | can inhibit MDA-MB-231 cells proliferation; also recorded: exhibited antiproliferation activity against MDA-MB-231 cell line in a dose-dependent manner | – | 4.14 µM | 5.54 µM | 3.17 µM | – | – | 1.78 µM | 4.12 µM | 1.82 µM |
